Blank lines part the entries; values can stand above or below the compound they belong to.
What was measured:
Type in all cases: physicochemical
[1] = 60° C. solubility in deionized (distilled) water and in seawater; set-up: key to 60° C. Solubility (@ mEq/L), H2O / 60° C. Solubility (@ mEq/L), Seawater: S: completely soluble; P: partially soluble; I: insoluble; T: turbid solution
Procedure: As mentioned above, surfactants for EOR must be compatible with divalent ion containing brines such as seawater. Solubility tests were carried out in both deionized water and in seawater. The surfactants of this invention (Examples 1-5) were all soluble in seawater. […] A commercial sulfonate (SDBS, Comparative Example 3) was insoluble in seawater. All surfactants were soluble in distilled water.
^ d S = completely soluble P = partially soluble I = insoluble T =

[2] = Calcium-ion tolerance (calcium precipitation) test; settings: for Calcium Precipitation (ppm CA^2+), lower concentration / Calcium Precipitation (ppm CA^2+), higher concentration: 10 mEq/L; for Calcium Precipitation (ppm CA^2+), lower concentration: one component apparently precipitates at the lower calcium ion concentration; for Calcium Precipitation (ppm CA^2+), higher concentration: remainder precipitates at the higher calcium concentration; for Calcium Precipitation (ppm CA^2+): 10 mEq/L surfactant titrated with 5 M CaCl2 until transmittance (600 nm) 80% of initial
Procedure: Calcium-ion tolerance tests were conducted to quantify the relative solubility of the surfactants in the presence of divalent ions (see Table 2). All of the surfactants of this invention tolerated calcium ion concentrations from 28 to 10,000 times higher than the comparative examples.
^e A 10 mEq/L solution of Surfactant was titrated with 5 M CaCl2
solution until the transmittance of the solution (600 nm) was reduced to
80% of the initial value.
^g One component apparently precipitates out at the lower calcium ion
concentration and the reminder at the higher calcium concentration.

[3] = Surface tension (lowering of the air/water surface tension), Table 2; settings: 10 mEq/L, deionized water, 22° C.
Procedure: The surface activity - lowering of the air/water surface tension - of the
surfactants was also measured. Surface tensions were measured at a
surfactant concentration of 10 milliequivalents/L in deionized water at
22° C. or a Fisher Autotensiomat (de Nouy ring) apparatus. At this
concentration, all the surfactants should be above their critical micell
^f Of a 10 mEq/L solution of surfactant at 22° C.

[4] = Surface tension by Du Nouy ring method at varied calcium ion concentration, Table 3
Procedure: (§1) Surface tensions (in dynes/cm) were measured using the Du Nouy ring method. The reported surface tensions are for 10 meq/L surfactant solutions: which is above the CMC (critical micelle concentration). The CMC's (in meq/L) were determined by examination of surface tension vs. surfactant concentration curves.

[5] = CMC (critical micelle concentration) from surface tension vs. surfactant concentration curves; settings: calcium ion concentration 0
Procedure: as §1

[6] = Foam formation/stability, simple version of the Ross-Miles foam test; settings: 10 meq/L
Procedure: Foam tests were conducted using a simple version of the Ross-Miles foam test. The initial (0 min) foam volume for SDBS was assigned a value of 100. All other foam volumes were related to this value.

[7] = Thermal stability at 90° C.; surfactant activity by two-phase titration; settings: for Surfactant Activity (%): 90° C.; for appearance: aged at 90° C.
Procedure: Surfactant solutions were prepared in distilled water, 1.2M sodium hydroxide, and 1.2M hydrochloric acid. These solutions were aged at 90° C. Samples were withdrawn at regular interval and surfactant activity was determined by two-phase titration.

[8] = Divalent ion tolerance as stated in the description; settings: divalent ion concentration tolerated / stable to

60° C. Solubility (@ mEq/L), H2O ([1]; 15 mEq/L): S | 60° C. Solubility (@ mEq/L), Seawater ([1]; 26 mEq/L): S | Surface Tension [3]: 25.2 Dyne/cm
Compound: CCCCCCC(CO)Cc1ccc(S(=O)(=O)O)cc1 (stereo not shown) [Example 4]
Calcium Precipitation (ppm CA^2+), lower concentration [2]: 350 ppm | Calcium Precipitation (ppm CA^2+), higher concentration [2]: 57000 ppm

60° C. Solubility (@ mEq/L), H2O ([1]; 30 mEq/L): S,T | solubility in seawater (in words) [1]: either insoluble or partially soluble | 60° C. Solubility (@ mEq/L), Seawater ([1]; 28 mEq/L): P | Surface Tension [3]: 24.9 Dyne/cm
Compound: CCCCCCCCCc1ccc(O)c(S(=O)(=O)O)c1 [Comparative Example 2]
Calcium Precipitation (ppm CA^2+) [2]: 160 ppm

60° C. Solubility (@ mEq/L), H2O ([1]; 27 mEq/L): S | solubility in seawater (in words) [1]: insoluble | 60° C. Solubility (@ mEq/L), Seawater ([1]; 27 mEq/L): I | Surface Tension [3]: 28.6 Dyne/cm | Surface Tension ([4]; 10 meq/L surfactant, calcium ion concentration 0): 29 dynes/cm | Surface Tension (observation in words) ([4]; calcium ion concentration 1000 PPM): surfactant precipitate | Surface Tension (observation in words) ([4]; calcium ion concentration 10,000 PPM): surfactant precipitate | CMC [5]: 1 meq/L | Foam Volume (relative to initial SDBS = 100) ([6]; 0 min): 100 | Foam Volume (relative to initial SDBS = 100) ([6]; +5 min): 94 | Foam Volume (relative to initial SDBS = 100) ([6]; +15 min): 83 | Foam Volume (relative to initial SDBS = 100) ([6]; +30 min): 77 | Foam Volume (relative to initial SDBS = 100) ([6]; +45 min): 71 | Surfactant Activity (%) ([7]; 1.2 M HCl, 0 hr): 100% | Surfactant Activity (%) ([7]; 1.2 M HCl, 305 hr): 92% | Surfactant Activity (%) ([7]; 1.2 M HCl, 500 hr): 59% | Surfactant Activity (%) ([7]; 1.2 M HCl, 720 hr): 41% | appearance ([7]; 1.2 M HCl): ppt | Surfactant Activity (%) ([7]; 1.2 M NaOH, 0 hr): 1% | appearance ([7]; 1.2 M NaOH): ppt | Surfactant Activity (%) ([7]; distilled water, 0 hr): 100% | Surfactant Activity (%) ([7]; distilled water, 330 hr): 93% | Surfactant Activity (%) ([7]; distilled water, 525 hr): 93% | Surfactant Activity (%) ([7]; distilled water, 740 hr): 93% | appearance ([7]; distilled water): clear
Compound: sodium dodecylbenzenesulfonate [SDBS]
Calcium Precipitation (ppm CA^2+) [2]: 90 ppm | divalent ion tolerance [8]: 100 ppm

60° C. Solubility (@ mEq/L), H2O ([1]; 18 mEq/L): S | 60° C. Solubility (@ mEq/L), Seawater ([1]; 27 mEq/L): S | Surface Tension [3]: 26.4 Dyne/cm
Compound: CCCCCCCCC(CO)CCC(C)c1ccc(S(=O)(=O)O)cc1 (stereo not shown) [Example 3]
Calcium Precipitation (ppm CA^2+) [2]: 40K

60° C. Solubility (@ mEq/L), H2O ([1]; 18 mEq/L): S | Surface Tension [3]: 25.1 Dyne/cm
Compound: CCCCCCC(CO)CCC(C)c1ccc(S(=O)(=O)O)cc1 (stereo not shown) [Example 1]
Calcium Precipitation (ppm CA^2+) [2]: 2800 ppm

60° C. Solubility (@ mEq/L), H2O ([1]; 24 mEq/L): S | solubility in seawater (in words) [1]: either insoluble or partially soluble | 60° C. Solubility (@ mEq/L), Seawater ([1]; 25 mEq/L): I | Surface Tension [3]: 23.4 Dyne/cm
Compound: CCCCCCCCCCCCc1ccc(O)c(S(=O)(=O)O)c1 [Comparative Example 1]
Calcium Precipitation (ppm CA^2+) [2]: < 80 ppm

60° C. Solubility (@ mEq/L), H2O ([1]; 15 mEq/L): S | 60° C. Solubility (@ mEq/L), Seawater ([1]; 27 mEq/L): S | Surface Tension [3]: 29.3 Dyne/cm
Compound: CCCCCCCCC(CO)Cc1ccc(S(=O)(=O)O)cc1 (stereo not shown) [Example 5]
Calcium Precipitation (ppm CA^2+) [2]: 100K

60° C. Solubility (@ mEq/L), H2O ([1]; 35 mEq/L): S | 60° C. Solubility (@ mEq/L), Seawater ([1]; 34 mEq/L): S | Surface Tension [3]: 25.6 Dyne/cm
Compound: CCCCCC(CO)CCC(C)c1ccc(S(=O)(=O)O)cc1 (stereo not shown) [Example 2]
Calcium Precipitation (ppm CA^2+), lower concentration [2]: 355 ppm | Calcium Precipitation (ppm CA^2+), higher concentration [2]: 20000 ppm

Source: patent US4894173A, “Divalent ion tolerant aromatic sulfonates” (The Standard Oil Company, priority 1988, dated 1990)
